# Where a SMILES comes first, the peptide text is derived from it. Where no end group is shown, it is not given here. The star is where a group is joined. Palmitoyl = CCCCCCCCCCCCCCCC(=O)*
# T1: FPR2 (Homo sapiens, UniProt P25090)
# T1 construct: Human peripheral blood neutrophils were isolated from buffy coats from healthy blood donors; endogenous in cells; host or cells: primary human peripheral blood neutrophils from buffy coats of healthy donors
# T1 sequence (P25090 1-351): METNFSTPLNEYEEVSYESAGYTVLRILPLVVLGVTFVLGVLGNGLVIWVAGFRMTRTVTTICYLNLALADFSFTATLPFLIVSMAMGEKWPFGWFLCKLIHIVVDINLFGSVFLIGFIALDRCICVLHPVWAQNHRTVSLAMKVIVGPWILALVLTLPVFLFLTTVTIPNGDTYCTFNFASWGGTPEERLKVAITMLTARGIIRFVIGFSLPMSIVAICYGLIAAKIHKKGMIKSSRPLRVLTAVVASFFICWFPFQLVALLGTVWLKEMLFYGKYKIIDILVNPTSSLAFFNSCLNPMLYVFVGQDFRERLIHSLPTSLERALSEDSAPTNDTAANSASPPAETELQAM
# T2: formyl peptide receptor 2 (FPR2) (human (endogenous in neutrophils), UniProt P25090 1-351)
# T2 sequence (looked up): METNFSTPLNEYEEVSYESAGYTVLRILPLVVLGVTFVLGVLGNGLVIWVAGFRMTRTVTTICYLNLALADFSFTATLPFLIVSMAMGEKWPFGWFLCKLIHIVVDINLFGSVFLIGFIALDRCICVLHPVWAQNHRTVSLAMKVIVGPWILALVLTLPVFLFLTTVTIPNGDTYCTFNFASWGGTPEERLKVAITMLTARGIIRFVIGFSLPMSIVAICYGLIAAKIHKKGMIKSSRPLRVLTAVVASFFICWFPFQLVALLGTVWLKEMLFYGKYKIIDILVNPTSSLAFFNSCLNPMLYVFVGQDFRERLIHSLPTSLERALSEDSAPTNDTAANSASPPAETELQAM
# Key:
# [1] = tested on: desensitized FPR2; assay: ATP/ATPγS-induced cross-talk reactivation of desensitized FPR2 (superoxide); format: cell-based, human; conditions: desensitized by WKYMVM (40 nM) or F2Pal10 (500 nM); ATPγS 50 µM
# Procedure: (§1) Human peripheral blood neutrophils were isolated from buffy coats from healthy blood donors using dextran sedimentation and Ficoll-Paque gradient centrifugation as described. The remaining erythrocytes were disrupted by hypotonic lysis, the neutrophils were washed twice, resuspended in KRG, and stored on melting ice until use. This isolation procedure permits cells to be purified with minimal granule mobilization.
# (§2) The NADPH-oxidase activity was determined using isoluminol-enhanced chemiluminescence (CL), [27]. The CL activity was measured in a six-channel Biolumat LB 9505 (Berthold Co., Wildbad, Germany), using disposable 4-ml polypropylene tubes with a 900 µl reaction mixture containing 10^5 cells, isoluminol (2×10^−5 M) and HRP (2 U). The tubes were equilibrated in the Biolumat for 5 min at 37°C, after which the stimulus (100 µl) was added and the light emission was recorded continuously. […]
# Figure 3 PAF- or ATP-stimulation induces reactivation of desensitized FPR2. […] The FPR2 specific inhibitor PBP10 (1 µM) was added 1 min prior to PAF stimulation (dashed line) and the release of superoxide anions was recorded continuously. […] The release of superoxide anions was recorded continuously. […]
# [2] = tested on: P2Y2R; assay: Direct NADPH-oxidase activation in naive neutrophils by P2Y2R agonists; format: cell-based, human
# Procedure: as §1
# as §2, with “continuously. Receptor desensitized cells were defined as naïve (non-desensitized) cells that had first been stimulated with a receptor specific agonist and returned to baseline after the resulting release of superoxide before a second stimulation. When reactivation experiments were performed with antagonists, the antagonists were added to the CL reaction mixture 1 min before the second stimulation.” for “continuously.”
# [3] = target: T1, FPR2; assay: Neutrophil NADPH-oxidase activity (superoxide release), direct activation of naive cells; format: cell-based; conditions: read-out: maximum response relative to WKYMVM, superoxide peak, naive human neutrophils; % of response induced by WKYMVM
# Procedure: as §1
# (§3) The NADPH-oxidase activity was determined using isoluminol-enhanced chemiluminescence (CL), [27]. The CL activity was measured in a six-channel Biolumat LB 9505 (Berthold Co., Wildbad, Germany), using disposable 4-ml polypropylene tubes with a 900 µl reaction mixture containing 10^5 cells, isoluminol (2×10^−5 M) and HRP (2 U). The tubes were equilibrated in the Biolumat for 5 min at 37°C, after which the stimulus (100 µl) was added and the light emission was recorded continuously. Receptor desensitized cells were defined as naïve (non-desensitized) cells that had first been stimulated with a receptor specific agonist and returned to baseline after the resulting release of superoxide before a second stimulation. When reactivation experiments were performed with antagonists, the antagonists were added to the CL reaction mixture 1 min before the second stimulation. For studies with signaling inhibitors, cells were incubated with inhibitors at 37°C for 15 min before agonist addition. Control cells received no treatment but were incubated under the same conditions.
# Data analysis was performed using GraphPad Prism 6.0 (Graphpad Software, San Diego, CA, USA).
# Representative experiments out of more than five are shown and an arrow indicates the time point for agonist addition. Abscissa: Time of study (min); ordinate: Superoxide production (Mcpm).
# [4] = tested on: neutrophils; assay: Inhibition of FPR2 agonist-induced superoxide by pertussis toxin or kinase inhibitors; format: cell-based, human; conditions: for inhibition of F2Pal10- and WKYMVM-induced superoxide by kinase inhibitor: inhibitors 20 nM to 1 µM (1 µM shown), 15 min at 37°C, n = 3
# Procedure: as §1, §3
# A. Primary human neutrophils were treated with pertussis toxin (PTX, 500 ng/ml final concentration) and samples were withdrawn at indicated time points. […] As a control, the PMA response (5×10^−8 M final concentration) from control cells (120 min incubation without PTX, solid line in the inset) or treated with PTX for 120 min (dashed line in the inset) is shown. Superoxide production (peak values) from pertussis toxin treated neutrophils was compared to that from non-treated control cells. A representative experiment out of more than five is shown. B and C. Fluo-3-AM/FuraRED labeled neutrophils were incubated without any additive (solid lines) or with EGTA (2 mM; dotted lines). […] Traces of representative calcium responses are shown and at least three experiments have been performed. Abscissa, time of study (sec); ordinate, fluorescence (arbitrary unit). D. Primary human neutrophils were incubated with different pharmacological kinase inhibitors (1 µM final concentration) for 15 min at 37°C. Control cells were incubated at the same condition but received no inhibitors. […] Data are presented as % inhibition compared to the control response (peak values of superoxide production were used, mean±SEM, n = 3).
# The effects of these inhibitors were determined using different concentrations ranging from 20 nM to 1 µM.
# [5] = tested on: desensitized FPR2; assay: PAF-induced cross-talk reactivation of desensitized FPR2 (superoxide); format: cell-based, human; conditions: PAF 100 nM; for inhibition of PAF response in FPR2-desensitized neutrophils: inhibitor before PAF, calyculin A 60 nM 10 min at 37°C, PBP10 1 µM, WEB2086 data not shown
# Procedure: as §1, §3
# Figure 3 PAF- or ATP-stimulation induces reactivation of desensitized FPR2. […] A representative experiment is shown and the time point for addition of FPR2 agonists is indicated by the first arrow, the time point for PAF stimulation (100 nM final concentration) with the second arrow. The control PAF response induced in naïve (non-desensitized) neutrophils is shown for comparison (dotted line). Abscissa: Time of study (min); ordinate: Superoxide production (Mcpm). B. Naïve neutrophils were first desensitized with F2Pal10 (F2Pal10des., 500 nM final concentration) and subsequently stimulated with PAF (100 nM final concentration; time point for PAF addition is indicated by an arrow). The FPR2 specific inhibitor PBP10 (1 µM) was added 1 min prior to PAF stimulation (dashed line) and the release of superoxide anions was recorded continuously. The PAF responses induced in naïve cells (solid line), as well as in F2Pal10-desensitized cells receiving no PBP10 (dotted line), are shown for comparison. Abscissa: Time of study (min); ordinate: Superoxide production (Mcpm). C. Effect of calyculin A on receptor cross-talk induced FPR2 reactivation. Cells desensitized with F2Pal10 (F2Pal10des.) were incubated with the phosphatase inhibitor calyculin A (60 nM; solid line) or buffer as control (dashed line) for 10 min at 37°C prior to PAF stimulation (100 nM). The release of superoxide anions was recorded continuously. Abscissa: Time of study (min); ordinate: Superoxide production (Mcpm). […] Abscissa: Time of study (min); ordinate: Superoxide production (Mcpm). […] The results are given as peak values of superoxide production following addition of ATPγS (mean+SEM; n = 3).
# Figure 4 More pronounced reactivation was induced by PAF in neutrophils desensitized by the pepducin F2Pal10. […] The results are given as peak values of superoxide production from three separate experiments for the first stimulation with FPR2 agonists (mean+SEM, n = 3). […]
# [6] = tested on: neutrophils; assay: Priming of FPR2 agonist-induced superoxide response; format: cell-based, human; conditions: for priming effect on F2Pal10-induced superoxide / priming effect on WKYMVM-induced superoxide: versus non-primed cells, n = 3; for priming effect on WKYMVM-induced superoxide: WKYMVM 50 nM
# Procedure: as §1, §3
# A. A representative experiment of an F2Pal10 induced response in control (solid line) and latrunculin A treated neutrophils (dashed line) is shown. The time point for addition of F2Pal10 is indicated by an arrow. Abscissa: Time of study (min); ordinate: Superoxide production (Mcpm). […] A non-priming cut-off line (fold increase = 1) is included as a horizontal broken line in the figure.
# [7] = target: T1, FPR2; assay: Inhibition of F2Pal10-induced superoxide release by receptor inhibitors/antagonists; format: cell-based; conditions: F2Pal10 500 nM; PBP10 1 µM, cyclosporin H 1 µM; representative of more than five
# Procedure: as §1, §2
# Figure 1 The F2Pal10 pepducin specifically activates FPR2. A. Primary human neutrophils were activated by F2Pal10 (500 nM) in the absence (solid line) or presence of the receptor specific inhibitor PBP10 (FPR2 specific inhibitor; 1 µM final concentration, dashed line) or the FPR1 antagonist cyclosporin H (CysH; 1 µM final concentration, dotted line) and the release of superoxide anions was recorded continuously. […] The release of superoxide anions was recorded continuously. […]
# [8] = target: T2, formyl peptide receptor 2 (FPR2); assay: cell-based or functional assay
molecule,measurement,setting,value
Nc1ncnc2c1ncn2[C@@H]1O[C@H](COP(=O)(O)OP(=O)(O)OP(=O)(O)O)[C@@H](O)[C@H]1O [ATP],superoxide release in FPR2-desensitized cells by P2Y2R agonist,[1],induced a release of superoxide anions in FPR2 desensitized cells
same,direct activation of NADPH-oxidase in naive neutrophils,[2],can not directly activate the NADPH-oxidase in naïve neutrophils
Nc1ncnc2c1ncn2[C@@H]1O[C@H](CO[P@](=O)(O)O[P@](=O)(O)O[P@@](=O)(O)S)[C@@H](O)[C@H]1O [ATPγS],superoxide release in FPR2-desensitized cells by P2Y2R agonist,[1],induced a release of superoxide anions in FPR2 desensitized cells
same,direct activation of NADPH-oxidase in naive neutrophils,[2],can not directly activate the NADPH-oxidase in naïve neutrophils
CCCCCCCCCCCCCCCC(=O)N[C@@H](CCCCN)C(=O)N[C@H](C(=O)N[C@@H](Cc1c[nH]cn1)C(=O)N[C@@H](CCCCN)C(=O)N[C@@H](CCCCN)C(=O)NCC(=O)N[C@@H](CCSC)C(=O)N[C@H](C(=O)N[C@@H](CCCCN)C(=O)N[C@@H](CO)C(=O)O)[C@@H](C)CC)[C@@H](C)CC [F2Pal10] (Palmitoyl-KIHKKGMIKS-OH),Emax,[3],70%
O=c1c(-c2ccc(O)cc2)coc2cc(O)cc(O)c12 [Genistein],inhibition of F2Pal10- and WKYMVM-induced superoxide by kinase inhibitor,"[4]; WKYMVM 50 nM, F2Pal10 500 nM",Very similar degrees of inhibition
CCCCCCCCCCCCCC(=O)O[C@@H]1[C@@H](C)[C@@]2(O)[C@@H](C=C(CO)C[C@]3(O)C(=O)C(C)=C[C@@H]23)[C@@H]2C(C)(C)[C@]12OC(C)=O [PMA],PMA responsiveness of pertussis toxin treated cells,"[4]; PMA 5×10^−8 M, PTX 120 min",retained their responsiveness to PMA
CC(C)(C)n1nc(-c2ccc(Cl)cc2)c2c(N)ncnc21 [PP2],inhibition of F2Pal10- and WKYMVM-induced superoxide by kinase inhibitor,"[4]; WKYMVM 50 nM, F2Pal10 500 nM",Very similar degrees of inhibition
C[S+]([O-])c1ccc(-c2nc(-c3ccncc3)c(-c3ccc(F)cc3)[nH]2)cc1 (stereo not shown) [SB203580],inhibition of F2Pal10- and WKYMVM-induced superoxide by kinase inhibitor,"[4]; WKYMVM 50 nM, F2Pal10 500 nM",Very similar degrees of inhibition
Cc1nnc2n1-c1sc(CCC(=O)N3CCOCC3)cc1C(c1ccccc1Cl)=NC2 [WEB2086],inhibition of PAF response in FPR2-desensitized neutrophils,[5],inhibited
COC[C@H]1OC(=O)c2coc3c2[C@@]1(C)C1=C(C3=O)[C@@H]2CCC(=O)[C@@]2(C)C[C@H]1OC(C)=O [Wortmannin],inhibition of F2Pal10- and WKYMVM-induced superoxide by kinase inhibitor,"[4]; WKYMVM 50 nM, F2Pal10 500 nM",Very similar degrees of inhibition
COC[C@@H]([C@H](O)[C@H](O)C(=O)NCC[C@H](C)c1nc(/C=C/C[C@@H]2O[C@]3(C[C@@H](O)[C@@H]2C)O[C@H]([C@H](C[C@H](O)[C@H](C)[C@H](O)[C@H](C)/C=C(C)/C(C)=C/C=C/C(C)=C\C#N)OC)[C@H](OP(=O)(O)O)C3(C)C)co1)N(C)C [calyculin A],inhibition of PAF response in FPR2-desensitized neutrophils,[5],inhibited
same,priming effect on F2Pal10-induced superoxide,[6]; F2Pal10 500 nM,Very similar priming effects
same,priming effect on WKYMVM-induced superoxide,[6],significantly more superoxide than non-primed control cells
C/C1=C/C(=O)O[C@@H]2C[C@@H](CC[C@H](C)/C=C\C=C\CC1)O[C@@](O)([C@@H]1CSC(=O)N1)C2 [latrunculin A],effect on neutrophil response to F2Pal10,"[6]; F2Pal10 500 nM, latrunculin A treated",dramatically increased and prolonged
TNFα,priming effect on F2Pal10-induced superoxide,[6]; F2Pal10 500 nM,Very similar priming effects
same,priming effect on WKYMVM-induced superoxide,[6],significantly more superoxide than non-primed control cells
cyclosporin H,inhibition of F2Pal10-induced superoxide response,[7],not affected
pertussis toxin,inhibition of F2Pal10- and WKYMVM-induced oxidase response by pertussis toxin,"[4]; PTX 500 ng/ml, 90 and 120 min, WKYMVM 50 nM, F2Pal10 500 nM",largely inhibited
platelet activating factor [PAF],reactivation of desensitized FPR2 by PAF,[5]; FPR2-desensitized neutrophils,reactivates desensitized FPR2 to an actively signaling state
Palmitoyl-KIHKKGMIKS [F2Pal10 pepducin],"maximum superoxide response of human neutrophils, relative to that induced by WKYMVM",[8],70%
same,"superoxide release (NADPH-oxidase activity, isoluminol chemiluminescence) from human neutrophils, F2Pal10 50-2000 nM, EC50",[8],~0.3 µM

# — PMC4193777 (PLoS ONE, 2014)
